{"source": "patent US9585391B2", "about": "“Pesticidal mixtures” (priority 2009, dated 2017)", "assay_type_in_all_cases": "in vivo", "key": {"[1]": {"test_system": "wheat plants", "assay": "water loss through transpiration of cut wheat plants (drought tolerance)", "details": "for transpiration (water loss): applied alone", "procedure": "The transpiration as an direct indicator of water stress of wheat plants treated or not treated with fluxapyroxad solo, dicamba solo, and respective mixtures thereof was assessed. 10 to 14 days old wheat plants were cut above the ground and placed into Eppendorf caps containing 2.2 ml of the test solution as described below. The wheat plants were incubated for 24 h at 25° C. and 50% relative humidity in a growth chamber. The weight of the Eppendorf cap including the test solution but excluding the plant was assessed before and after incubation. The difference in weight was recorded as the loss of water through transpiration. This assay was used to asses the drought tolerance of the plants. In the present example wheat plants of the variety ‘Monopol’ were grown at 18° C. for 10 days in the greenhouse prior to the treatment and the incubation. 10 plants per treatment were treated and incubated as described. Fluxapyroxad and dicamba were dissolved on 0.5% DMSO. The tested concentrations are described in table 3. Control plants were treated with the blank 0.5% DMSO solution only. The efficacy of the tested compounds and mixtures was calculated as % of water loss compared to the control; […] The expected efficacies of the combinations of the compounds were estimated using Colby's formula (Colby, S."}, "[2]": {"test_system": "wheat leaves", "assay": "relative weight loss of detached wheat leaves (drought tolerance)", "details": "for fresh weight loss: applied alone", "procedure": "The relative weight loss of wheat leaves treated or not treated with fluxapyroxad, dicamba, and mixtures thereof as an indirect parameter for increased drought tolerance was assessed. Leaves of 10 to 14 days old wheat plants were detached and placed into Eppendorf caps containing 2.2 ml of the test solution as described below. The wheat leaves were incubated for 24 h at 25° C. and 50% relative humidity in a growth chamber. After incubation, the incubated leaves were removed from the solution and placed on filter paper in a growth chamber for 60 minutes (25° C., 50% rel. humidity). Fresh biomass of the leaves was assessed directly after incubation and in addition after 60 minutes. The difference in fresh weight was recorded as relative weight loss. The relative loss of fresh weight is calculated as: [formula] In the present example wheat plants of the variety ‘Monopol’ were grown at 18° C. for 10 days in the greenhouse prior to the treatment and the incubation. 10 plants per treatment were treated and incubated as described. Fluxapyroxad and dicamba were dissolved on 0.5% DMSO. Tested concentrations are described in table 4. Control plants were treated with the blank 0.5% DMSO solution only. The efficacy of the tested compounds and mixtures was calculated as % of relative weight loss compared to the control: […] The expected efficacies of the combinations of the compounds were estimated using Colby's formula (Colby, S."}, "[3]": {"test_system": "cucumber cotyledons", "assay": "growth (biomass) of cucumber cotyledons", "details": "for stimulation of the growth of the cotyledons: applied alone; for Mean cotyledon biomass: 4 days in the dark at 21.5° C.; for Observed efficacy: % biomass increase compared to the control", "procedure": "The effect of fluxapyroxad solo, dicamba solo and a mixture comprising both compounds on the growth (biomass) of cucumber cotyledons was evaluated. […] Subsequently, 20 to 30 cotyledons per treatment were cut and placed in a Petri dish containing 10 ml of the treatment solution as described below. Control cotyledons were treated with the 0.5% DMSO solution only. Following the incubation in the dark at 21.5° C. for 4 days the cotyledons were weight and the fresh biomass recorded (table 2). […] The efficacy of the tested active ingredients was calculated as % of biomass increase compared to the control: E=(a/b−1)·100 a corresponds to biomass of cotyledons after incubation in the treated plants in g; and b corresponds to biomass of cotyledons after incubation in the control in g. […] The expected efficacies of the combinations of the active ingredients were estimated using Colby's formula (Colby, S."}}, "data": [{"smiles": "COc1c(Cl)ccc(Cl)c1C(=O)O", "note": "[Dicamba, dicamba]", "values": [{"measurement": "Mean water loss", "setting": "[1]; dicamba 1.25 ppm", "value": 0.781, "unit": "g"}, {"measurement": "Observed efficacy", "setting": "[1]; dicamba 1.25 ppm", "value": "−4.8", "unit": "%"}, {"measurement": "Mean water loss", "setting": "[1]; dicamba 12.5 ppm", "value": 0.765, "unit": "g"}, {"measurement": "Observed efficacy", "setting": "[1]; dicamba 12.5 ppm", "value": "−2.7", "unit": "%"}, {"measurement": "Mean water loss", "setting": "[1]; dicamba 125 ppm", "value": 0.737, "unit": "g"}, {"measurement": "Observed efficacy", "setting": "[1]; dicamba 125 ppm", "value": 1.1, "unit": "%"}, {"measurement": "transpiration (water loss)", "setting": "[1]; lower concentrations", "value": "increased transpiration"}, {"measurement": "fresh weight loss", "setting": "[2]", "value": "reduced fresh weight loss"}, {"measurement": "Mean relative weight loss", "setting": "[2]; dicamba 1.25 ppm", "value": 17.09, "unit": "%"}, {"measurement": "Observed efficacy", "setting": "[2]; dicamba 1.25 ppm", "value": 10.69, "unit": "%"}, {"measurement": "Mean relative weight loss", "setting": "[2]; dicamba 12.5 ppm", "value": 15.74, "unit": "%"}, {"measurement": "Observed efficacy", "setting": "[2]; dicamba 12.5 ppm", "value": 17.76, "unit": "%"}, {"measurement": "stimulation of the growth of the cotyledons", "setting": "[3]", "value": "no stimulation of the growth"}, {"measurement": "Mean cotyledon biomass", "setting": "[3]; dicamba 1.25 ppm", "value": 48.2, "unit": "mg"}, {"measurement": "Observed efficacy", "setting": "[3]; dicamba 1.25 ppm", "value": 0.2, "unit": "%"}]}, {"smiles": "Cn1cc(C(=O)Nc2ccccc2-c2cc(F)c(F)c(F)c2)c(C(F)F)n1", "note": "[Fluxapyroxad, N-(3′,4′,5′-trifluorobiphenyl-2-yl)-3-difluoromethyl-1-methyl-1H-pyrazole-4-carboxamide]", "values": [{"measurement": "Mean water loss", "setting": "[1]; fluxapyroxad 10 ppm, 24 h at 25° C., 50% relative humidity", "value": 1.061, "unit": "g"}, {"measurement": "Observed efficacy", "setting": "[1]; fluxapyroxad 10 ppm, water loss compared to the control", "value": "−42.4", "unit": "%"}, {"measurement": "Mean water loss", "setting": "[1]; fluxapyroxad 50 ppm", "value": 0.660, "unit": "g"}, {"measurement": "Observed efficacy", "setting": "[1]; fluxapyroxad 50 ppm", "value": 11.5, "unit": "%"}, {"measurement": "Mean water loss", "setting": "[1]; fluxapyroxad 100 ppm", "value": 0.607, "unit": "g"}, {"measurement": "Observed efficacy", "setting": "[1]; fluxapyroxad 100 ppm", "value": 18.5, "unit": "%"}, {"measurement": "transpiration (water loss)", "setting": "[1]; higher concentrations", "value": "decreased transpiration"}, {"measurement": "transpiration (water loss)", "setting": "[1]; lower concentrations", "value": "increased transpiration"}, {"measurement": "fresh weight loss", "setting": "[2]", "value": "reduced fresh weight loss"}, {"measurement": "Mean relative weight loss", "setting": "[2]; fluxapyroxad 10 ppm, 24 h incubation, then 60 minutes on filter paper (25° C., 50% rel. humidity)", "value": 17.62, "unit": "%"}, {"measurement": "Observed efficacy", "setting": "[2]; fluxapyroxad 10 ppm, relative weight loss compared to the control", "value": 7.94, "unit": "%"}, {"measurement": "Mean relative weight loss", "setting": "[2]; fluxapyroxad 50 ppm", "value": 13.61, "unit": "%"}, {"measurement": "Observed efficacy", "setting": "[2]; fluxapyroxad 50 ppm", "value": 28.89, "unit": "%"}, {"measurement": "stimulation of the growth of the cotyledons", "setting": "[3]", "value": "no stimulation of the growth"}, {"measurement": "Mean cotyledon biomass", "setting": "[3]; fluxapyroxad 5 ppm", "value": 47.1, "unit": "mg"}, {"measurement": "Observed efficacy", "setting": "[3]; fluxapyroxad 5 ppm", "value": "−1.9", "unit": "%"}]}]}
